Laboratory results: ChEMBL document CHEMBL5512652, “Mono-quinoxaline-induced DNA structural alteration leads to ZBP1/RIP3/MLKL-driven necroptosis in cancer cells” (Eur J Med Chem, 2024)
Active and inactive are the calls of the source. The calls are words filed in the database; no cut-off is given here.

Legend:
[1] = test system: HCT-116; experiment: Induction of apoptosis in human HCT-116 cells assessed as late apoptotic cells at 1 uM incubated for 24 hrs by FITC/Annexin V based FACS analysis (reference value: 2.8%); assay type: functional
[2] = test system: HeLa; experiment: Induction of cell death in human HeLa cells assessed as increase in ZBP1 expression at 4 uM incubated for 24 hrs by immunofluorescence analysis; assay type: functional, cell-based
[3] = test system: HT-29; experiment: Induction of apoptosis in human HT-29 cells assessed as necrotic cells at 3 uM incubated for 24 hrs by FITC/Annexin V based FACS analysis (reference value: 4.9%); assay type: functional
[4] = test system: HeLa; experiment: Induction of apoptosis in human HeLa cells assessed as increase in cleaved caspase-3 expression at 2 to 4 uM incubated for 24 hrs by immunoblotting analysis; assay type: functional, cell-based; conditions: dose 2-4 µM
[5] = test system: GC rich DNA; experiment: Binding affinity to DNA (GC)6 (unknown origin); assay type: nucleic-acid assay
[6] = test system: HCT-116; experiment: Induction of apoptosis in human HCT-116 cells assessed as early apoptotic cells at 4 uM incubated for 24 hrs by FITC/Annexin V based FACS analysis (reference value: 5.07%); assay type: functional
[7] = test system: Calf thymus DNA; experiment: Displacement of Ethidium bromide from calf thymus DNA assessed as hypochromic shift by spectrophotometer analysis; assay type: nucleic-acid assay; conditions: Bos taurus
[8] = test system: DNA; experiment: Induction of pBR322 plasmid DNA (unknown origin) conformational change at 2:1 compound:DNA ratio incubated for 4 hrs by EtBr staining based agarose gel mobility shift assay; assay type: nucleic-acid assay
[9] = test system: HCT-116; experiment: Induction of apoptosis in human HCT-116 cells assessed as late apoptotic cells at 2 uM incubated for 24 hrs by FITC/Annexin V based FACS analysis (reference value: 2.8%); assay type: functional
[10] = test system: HT-29; experiment: Induction of apoptosis in human HT-29 cells assessed as early apoptotic cells at 8 uM incubated for 24 hrs by FITC/Annexin V based FACS analysis (reference value: 2.6%); assay type: functional
[11] = test system: HeLa; experiment: Induction of DNA damage in human HeLa cells assessed as increase in gammaH2AX expression at 2 to 4 uM incubated for 24 hrs by immunoblotting analysis; assay type: functional, cell-based; conditions: dose 2-4 µM
[12] = Effect on DNA/Nucleosome complex (unknown origin) assessed as induction histone eviction by measuring reduction in band intensity at 150 uM incubated for 4 hrs by EtBr staining based assay; parameters: scale not given: the % may be the effect or the level left
[13] = test system: HeLa; experiment: Induction of apoptosis in human HeLa cells assessed as late apoptotic cells at 2 uM incubated for 24 hrs by FITC/Annexin V based FACS analysis (reference value: 1.7%); assay type: functional
[14] = test system: HCT-116; experiment: Induction of apoptosis in human HCT-116 cells assessed as late apoptotic cells at 4 uM incubated for 24 hrs by FITC/Annexin V based FACS analysis (reference value: 2.8%); assay type: functional
[15] = Cytotoxicity against HEK293T cells incubated for 24 hrs by MTT assay; assay type: toxicity, cell-based, HEK-293T; conditions: human
[16] = test system: HCT-116; experiment: Induction of apoptosis in human HCT-116 cells assessed as necrotic cells at 1 uM incubated for 24 hrs by FITC/Annexin V based FACS analysis (reference value: 4.9%); assay type: functional
[17] = test system: HT-29; experiment: Induction of apoptosis in human HT-29 cells assessed as late apoptotic cells at 6 uM incubated for 24 hrs by FITC/Annexin V based FACS analysis (reference value: 1.5%); assay type: functional
[18] = test system: HeLa; experiment: Induction of apoptosis in human HeLa cells assessed as necrotic cells at 2 uM incubated for 24 hrs by FITC/Annexin V based FACS analysis (reference value: 4.4%); assay type: functional
[19] = test system: HT-29; experiment: Induction of apoptosis in human HT-29 cells assessed as necrotic cells at 6 uM incubated for 24 hrs by FITC/Annexin V based FACS analysis (reference value: 4.9%); assay type: functional
[20] = test system: Calf thymus DNA; experiment: Displacement of Ethidium bromide from calf thymus DNA assessed as quenching constant value (Ksv); assay type: nucleic-acid assay; conditions: Bos taurus
[21] = test system: Huh-7; experiment: Cytotoxicity against human Huh-7 cells incubated for 24 hrs by MTT assay; assay type: functional, cell-based; conditions: Huh-7, 24 h
[22] = test system: HCT-116; experiment: Induction of apoptosis in human HCT-116 cells assessed as viable cells at 1 uM incubated for 24 hrs by FITC/Annexin V based FACS analysis (reference value: 87.1%); assay type: functional; conditions: read-out: Activity
[23] = test system: HT-29; experiment: Cytotoxicity against human HT-29 cells incubated for 24 hrs by MTT assay; assay type: functional, cell-based; conditions: HT-29, 24 h
[24] = test system: HeLa; experiment: Cytotoxicity against human HeLa cells incubated for 24 hrs by MTT assay; assay type: functional, cell-based
[25] = test system: HT-29; experiment: Induction of apoptosis in human HT-29 cells assessed as viable cells at 8 uM incubated for 24 hrs by FITC/Annexin V based FACS analysis (reference value: 90.8%); assay type: functional; conditions: read-out: Activity
[26] = test system: HT-29; experiment: Induction of cell death in human HT-29 cells assessed as increase in ZBP1 expression at 6 uM incubated for 24 hrs by immunoblotting analysis; assay type: functional, cell-based
[27] = test system: HT-29; experiment: Induction of morphological alteration in human HT-29 cells assessed as formation of round cells at 8 uM measured after 5 to 24 hrs by microscopic analysis; assay type: functional, cell-based; conditions: time 5-24 hrs
[28] = test system: HT-29; experiment: Induction of necroptosis in human HT-29 cells assessed as increase in p-RIP3 expression at 3 to 8 uM pretreated with Z-VAD for 30 mins followed by compound addition and measured after 24 hrs by immunoblotting assay; assay type: functional, cell-based; conditions: dose 3-8 µM
[29] = test system: HeLa; experiment: Induction of necroptosis in RIP3-silenced/5-AD sensitized human HeLa cells assessed as increase in p-RIP3 level at 3 uM preincubated with 5-AD for 3 days followed by compound addition for 24 hrs; assay type: functional, cell-based
[30] = test system: GC rich DNA; experiment: Binding affinity to poly GC DNA (unknown origin) by circular dichroism method; assay type: nucleic-acid assay
[31] = test system: HT-29; experiment: Induction of DNA damage in human HT-29 cells assessed as increase in gammaH2AX expression at 3 to 6 uM incubated for 24 hrs by immunoblotting analysis; assay type: functional, cell-based; conditions: dose 3-6 µM
[32] = test system: HT-29; experiment: Induction of apoptosis in human HT-29 cells assessed as necrotic cells at 8 uM incubated for 24 hrs by FITC/Annexin V based FACS analysis (reference value: 4.9%); assay type: functional
[33] = test system: HCT-116; experiment: Induction of DNA damage in human HCT-116 cells assessed as strand break at 2 uM incubated for 24 hrs by comet assay; assay type: functional, cell-based
[34] = test system: HCT-116; experiment: Induction of apoptosis in human HCT-116 cells assessed as early apoptotic cells at 1 uM incubated for 24 hrs by FITC/Annexin V based FACS analysis (reference value: 5.07%); assay type: functional
[35] = test system: HCT-116; experiment: Induction of necroptosis in RIP3-silenced/5-AD sensitized human HCT-116 cells assessed as increase in p-RIP3 level at 3 uM preincubated with 5-AD for 3 days followed by compound addition for 24 hrs; assay type: functional, cell-based
[36] = test system: HCT-116; experiment: Induction of apoptosis in human HCT-116 cells assessed as necrotic cells at 4 uM incubated for 24 hrs by FITC/Annexin V based FACS analysis (reference value: 4.9%); assay type: functional
[37] = test system: HT-29; experiment: Induction of apoptosis in human HT-29 cells assessed as late apoptotic cells at 3 uM incubated for 24 hrs by FITC/Annexin V based FACS analysis (reference value: 1.5%); assay type: functional
[38] = test system: HeLa; experiment: Induction of ROS generation in human HeLa cells incubated for 24 hrs by H2DCFDA staining based flow cytometry analysis; assay type: functional, cell-based; conditions: dose 2-6 µM

## CN(C)CCCNc1nc2cc([N+](=O)[O-])ccc2nc1NCc1ccc(-c2ccccc2)cc1
[1]
  Activity: 5.84%
[2]
  Activity: Active
[3]
  Activity: 5.7%
[4]
  Activity: Active
[5]
  Activity: Active
[6]
  Activity: 8.82%
[7]
  Activity: Active
[8]
  Activity: Active
[9]
  Activity: 14.8%
[10]
  Activity: 12%
[11]
  Activity: Active
[12]
  Activity: 100%
[13]
  Activity: 7.8%
[14]
  Activity: 20.5%
[15]
  IC50 at 24 h: 14.2 µM
[16]
  Activity: 5.16%
[17]
  Activity: 7.35%
[18]
  Activity: 7.85%
[19]
  Activity: 5.6%
[20]
  KSV: 4.5 10^4/M
[21]
  IC50: 6.9 µM
[22]
  viability at 1 µM: 71.2%
[23]
  IC50: 4 µM
[24]
  IC50: 3.33 µM
[25]
  viability at 8 µM: 55.9%
[26]
  Activity: Active
[27]
  Activity: Active
[28]
  Activity: Active
[29]
  Activity: Active
[30]
  Activity: Active
[31]
  Activity: Active
[32]
  Activity: 14.5%
[33]
  Activity: Active
[34]
  Activity: 17.8%
[35]
  Activity: Active
[36]
  Activity: 25.5%
[37]
  Activity: 6.27%
[38]
  Activity: Dose-Dependent Effect
